Experimental data reported in EP0103895A2, “Novel hydroxylamine derivatives, production and use thereof” (MEIJI SEIKA KABUSHIKI KAISHA, priority 1982, dated 1984).

Legend:
[1] = test system: Liver fluke; Fasciola hepatica (F. hepatica); test: Test of anthelmintic effect against rat infected experimentally with liver fluke (Test Examples A11, B11, C11, D11); type: in vivo; design: key to Presence or absence of fluke egg in fecal matter On 21st day after the last administration: +: indicates detection of fluke egg; -: indicates no detection; conditions: rats, 50 mg/Kg x 5 orally, one value per rat; for Condition of fluke body: autopsy, liver, "Denatured" = fluke body is alive but a part of fluke body has changed
From the text: Twenty-eight (28) rats were employed in fourteen groups each of two rats, each rat being infected with 5 metacercariae of Liver fluke; Fasciola he^patica (F.. hepatica) and confirmed to have worm eggs on the 75th day after infection according to fecal matter testing.
Judgement of the effect was made by the presence or absence of the worm gees in the fecal matter on the 21st day after the last administration and by examination according to autopsis as to whether the worm bodies were dead or alive in the liver.
The same as that in Test Example All, but eight (8) rats were employed by grouping them into groups each of two rats, each rat being infected with 5 metacercariae of liver fluke and confirmed to have fluke eggs on the 75th day after infection according to fecal matter testing.
The compounds provided for the tests were Compound Nos. Bl, B8 and B19.
The same as that in Test Example All, but six (6) rats were employed by grouping them into groups each of two rats, each rat being infected with 5 metacercariae of Fasciola hepatica and confirmed to have worm eggs on the 75th day after infection according to fecal matter testing.
The compounds provided for the tests were Compound Nos. C2 and C6.
The same as that in Test Example All, but the compounds provided for tests were Compound Nos. D14, D15 and D16.

[2] = test system: fowl roundworm (As. galli); test: Anthelmintic test in chickens artificially infected with fowl roundworm, compound added to feed, E.P.G. and worm count up to 21st day (Test Examples A2, B2, C2, D2); type: in vivo, Ascaridia galli; conditions: Ascaridia galli, po, 504 h, chickens, worm count on 21st day, one value per chicken, read-out: Anthelmintic effect; for inhibition in vivo at 10 ppm: 10 ppm added to feed; for inhibition in vivo at 50 ppm: 50 ppm added to feed
Procedure: Chickens artificially infected with fowl roundworm (As. galli) were employed in groups each of two chickens.
Fecal matter testing was conducted before initiation of the test and on the 7th, 14th and 21st day after initiation of the test. Reduction in worm egg number was examined by calculating E.P.G. (worm eggs per 1 g of fecal matter), and the number of discharged worm bodies and the number of worm bodies remaining in the enteron when the chicken was killed on 21st day were counted to determine the anthelmintic percentage, from which the anthelmintic effect was judged.

[3] = test system: fowl roundworm (As. galli); test: Anthelmintic test in chickens infected with fowl roundworm, compound added to feed at 250 ppm and 1,000 ppm, E.P.G. and worm count on 5th day (Test Example E2); type: in vivo, Ascaridia galli; conditions: for E.P.G. after 5 days: worm egg number in 1 g of fecal matter; for anthelmintic effect / inhibition in vivo at 250 ppm / inhibition in vivo at 1000 ppm: 5th day; for inhibition in vivo at 250 ppm / inhibition in vivo at 1000 ppm: Ascaridia galli, feed or water, 120 h, read-out: Anthelmintic effect
Procedure: Chickens infected with fowl roundworm (As. galli) were employed in groups each of two chickens.
The compound provided for the test was dissolved in a small amount of ethyl alcohol and adsorbed on defatted rice bran and added to chicken feed at levels of 250 ppm and 1,000 ppm. As control, a feed containing no such compound was employed.
Fecal matter testing was conducted before initiation of the test and on the 5th day after initiation of the test. The reduction in worm egg count was examined by calculating the E.P.G. (worm egg number in 1 g of fecal matter). The number of discharged worm bodies and the number of worm bodies remaining in the enteron when the chicken was killed on 5th day were counted to determined the anthelmintic percentage, from which the anthelmintic effect was judged.

[4] = test system: fowl roundworm (As. galli); test: Anthelmintic test in chickens infected with fowl roundworm, single oral dose of 40 mg per Kg, worm bodies counted within 24 hours (Test Example E1); type: in vivo, Ascaridia galli; conditions: 40 mg per Kg oral in gelatin capsule; for inhibition in vivo at 40 mg/kg: Ascaridia galli, 24 h, chicken No.1, read-out: Anthelmintic effect after one day
Procedure: Chickens infected with fowl roundworm (As. galli) were employed in groups each consisting of five chickens. The compound provided for testing was orally administered in a quantity of 40 mg per Kg of body weight to each chicken in a gelatin capsule. The number of worm bodies discharged within 24 hours after administration of the medicine was counted. Then the chicken was killed, and the number of worm bodies remaining in the enteron was counted to determine the anthelmintic percentage, wherefrom the anthelmintic effect was judged.

[5] = 1000 ppm in feed, chicken No. 1
[6] = 1000 ppm in feed, chicken No. 2

SMILES | Condition of fluke body [1] | Presence or absence of fluke egg in fecal matter On 21st day after the last administration [1] | inhibition in vivo at 10 ppm [2] | inhibition in vivo at 50 ppm [2] | Condition of fluke body ([1]; 50 mg/kg) | E.P.G. after 5 days ([3]; 250 ppm in feed, chicken No. 1) | anthelmintic effect ([3]; 250 ppm in feed, chicken No. 2) | E.P.G. after 5 days ([3]; 250 ppm in feed, chicken No. 2) | E.P.G. after 5 days [3, 5] | anthelmintic effect [3, 6] | E.P.G. after 5 days [3, 6] | inhibition in vivo at 250 ppm ([3]; 250 ppm in feed, chicken No. 1) | inhibition in vivo at 1000 ppm [3, 5] | inhibition in vivo at 40 mg/kg [4] | Anthelmintic effect after one day ([4]; chicken No.2) | Anthelmintic effect after one day ([4]; chicken No.3) | Anthelmintic effect after one day ([4]; chicken No.4) | Anthelmintic effect after one day ([4]; chicken No.5)
C#CCN(OCC)C(C)=O [Compound A2, N-propargyl-N-acetyl-O-ethylhydroxylamine] | dead | - | 80 to 90% | 100% |  |  |  |  |  |  |  |  |  |  |  |  |  | 
C#CCN(OCC=CC)C(C)=O [Compound A4, N-propargyl-N-acetyl-O-crotylhydroxylamine] | dead | - | 80 to 90% | 100% |  |  |  |  |  |  |  |  |  |  |  |  |  | 
C#CCN(OCC=C)C(=O)CC [Compound A5, N-propargyl-N-propionyl-0-allylhydroxylamine] | dead | - | 80 to 90% | 100% |  |  |  |  |  |  |  |  |  |  |  |  |  | 
C#CCN(OCC=C)C(=O)CCC [Compound A6, N-propargyl-N-butylyl-O-allylhydroxylamine] |  | - | 100% | 100% | dead and denatured |  |  |  |  |  |  |  |  |  |  |  |  | 
C#CCON(CC#C)C(=O)CCCCC [Compound E5, N,O-dipropargyl-N-caproylhydroxylamine] |  |  |  |  |  | 0 | +++ (100%) | 0 | 0 | +++ (100%) | 0 | 100% | 100% | 100% | +++ (100%) | +++ (100%) | +++ (100%) | +++ (100%)
C#CCON(CC#C)C(=O)CCCCCCC/C=C\CCCCCCCC [Compound E6, N,O-dipropargyl-N-oleoylhydroxylamine] |  |  |  |  |  | 0 | +++ (100%) | 0 | 0 | +++ (100%) | 0 | 100% | 100% | 100% | +++ (100%) | +++ (100%) | +++ (100%) | +++ (100%)
C#CCON(CC#C)C(=O)c1ccccc1 [Compound E7, N,O-dipropargyl-N-benzoylhydroxylamine] |  |  |  |  |  | 0 | +++ (100%) | 0 | 0 | +++ (100%) | 0 | 100% | 100% | 100% | +++ (100%) | +++ (100%) | +++ (100%) | +++ (100%)
C#CCON(CC#C)C(=O)c1ccccc1Cl [Compound E8, N,O-dipropargyl-N-O-chlorobenzoylhydroxylamine] |  |  |  |  |  | 0 | +++ (100%) | 0 | 0 | +++ (100%) | 0 | 100% | 100% | 100% | +++ (100%) | +++ (100%) | +++ (100%) | +++ (100%)
C#CCON(C=O)CC#C [Compound E9, N,O-dipro- pargyl-N-formylhydroxylamine] |  |  |  |  |  | 0 | +++ (100%) | 0 | 0 | +++ (100%) | 0 | 100% | 100% | 100% | +++ (100%) | +++ (100%) | +++ (100%) | +++ (100%)
C#CCON(CC#C)C(=O)CCCCCCCCCCC [Compound E10, N,O-dipropargyl-N-lauroylhydroxylamine] |  |  |  |  |  | 0 | +++ (100%) | 0 | 0 | +++ (100%) | 0 | 100% | 100% | 100% | +++ (100%) | +++ (100%) | +++ (100%) | +++ (100%)
C#CCON(CC#C)C(=O)CCCCCCCCCCCCCCCCC [Compound E11, N,O-dipropargyl-N-stearoyl- hydroxylamine] |  |  |  |  |  | 0 | +++ (100%) | 0 | 0 | +++ (100%) | 0 | 100% | 100% | 100% | +++ (100%) | +++ (100%) | +++ (100%) | +++ (100%)
